According to paper PMC12261321, “Inhibitors of the Bacterioferritin Ferredoxin Complex Dysregulate Iron Homeostasis and Kill and Biofilm-Embedded Cells” (ACS Infectious Diseases, 2025):

Legend:
Assay type in all cases: cell-based
[1] = tested on: P. aeruginosa PAO1; assay: Compound intracellular accumulation in P. aeruginosa PAO1; conditions: ‡ treatment with 15 µM compound
[2] = tested on: P. aeruginosa PAO1 biofilm; assay: Pellicle biofilm assay, % survival of biofilm cells; conditions: for % Survival Biofilm, P. aeruginosa PAO1: 24 h; for biofilm cell death: 27 h old pellicle biofilms treated 24 h
Experimental: We studied the susceptibility of mature biofilms to treatment with analogues of 4-aminoisoindoline-1,3-dione using biofilms cultured at the […] interface (pellicles) using methodology reported previously. To determine the susceptibility of pellicle biofilms to inhibitors of the Pa Bfr–Bfd complex, we cultured 27 h old biofilms in PI media supplemented with 20 μM Fe, as presented in Experimental Methods. The mature biofilms were transferred onto glass coverslips by touching the pellicle with the surface of the coverslips. The coverslip-adhered biofilms were then exposed to treatment solution consisting of AB media supplemented with 20 μM Fe, 1.5% DMSO, 0.025% HPMC, and 4-aminoisoindoline-1,3-dione derivative or commercial antibiotic for 24 h. The biofilms were then harvested and washed, and the cells were dispersed into sterile PBS by vortexing in the presence of zirconia beads prior to plating and enumerating viable cells (CFU/mL) to calculate % cell survival.
Biofilm Assays. Pellicle biofilms formed by EYF P-expressing P. aeruginosa PAO1 wer e carried ou t as repo rted previously,13 with some modifications. Starter cultures were diluted to OD600 = 0.001 in 4 mL PI media supplement ed with 20 µM Fe , trans ferred to petri dishes (35 x 10 mm) and incubated statically for 27 h at 30 °C.
The pellicles were transferred onto circular microscope glass coverslips (12 mm diameter) by gently allowing the surface of a coverslip to contact the pellicle. Th e biofilm- attached coverslip was washed (3 x) by floating it on top of PBS with the biofilm exposed to the liquid and then placed on top of 1.5 mL AB challenge media in a well of a 12-well microplate, with the biofilm exposed to the media at 30 °C for 24 h. AB challenge media is AB minimal media supplemented with 1.5% DMSO, 0.025% HPMC, 20 μ M Fe, and 4-aminoisoindoline-1,3- dione […]
The 4-aminoisoindoline-1,3- dione derivative solutions were prep ared from powder as 10 mM st ock solutions in DMSO and then diluted in AB challenge media to the appropriate concentrations. Following the 24 h challenge, planktonic and loosely attached cells were washed 3 times by floating the coverslip-attached biofilms with the biofilm facing down into a petri d ish (60 x 15 mm) containing 15 mL PBS, and incubating for 5 min. The biofilm was removed from the coversli p and the cells releas ed f rom the extra cel lular matrix by placing th e cov erslip-attach ed biofi lm in a 50 mL conical tub e containing a 2-mL sup ension of zirconia beads (0.1 mm diam eter, BiosSpec Produ cts), 10 mL PBS, 1 mM MgSO4, 20 µg/mL alginate lyase and 40 µg/mL DNAse. The mixture was incubated for three min at room temperature, and then vigorously vortexed for four min. Following sedimentation of the zirconia beads, a 100 μ L aliquot was utilized for serial dilution in PBS and plating on PIA plates for viable cell enumeration (CFU/mL). […]

[3] = tested on: P. aeruginosa PAO1; assay: Compound intracellular accumulation in P. aeruginosa PAO1; conditions: cells treated with 30 µM compound
Experimental: Determination of Compound Intracellular Accumulation. These experiments were carri ed out as reported previously,16 with modifications. Starter cultures o f P. aeruginosa PAO1 or A. baumannii 5075 were centrifuged for 10 min at 3148 x g and 4 °C, resuspended in 5 mL of fresh LB, diluted to OD 600 = 0.03 in fresh LB media (250 mL), and then cultured at 35 °C and 220 rpm for 4 h. Th e resultant cul ture was diluted to OD600 = 0.4 in 250 mL LB and centrifuged at 4 °C and 3470 x g for 10 min. The cell pellet was resuspended in 20 mL of PBS and transfer red to a 50 mL conical tube, where it was centrifuged at 4 °C and 3148 x g for 20 min. The cell pellet was resuspended in 15 mL of PBS supplemented with 0.05% (w/v) HPMC and the suspension was divided equally into two new conical tubes. One of th e tubes was treated with 150 µL of DMSO (control), while the second tube was treated with 150 µL of compound in DMSO solution to produce a compound final concentration of 30 µM or 15 µM. The resultant mixtures were incubated at 37 °C and 220 rpm for 15 min, placed on ice for 1 min, and then centrifuged at 3148 x g rpm and 4 °C for 10 min. The cell pellet was resuspended in 7.5 mL of ice -cold PBS and vortexed (10 s, five t imes). 200 µL of the cell suspension was used to plate and enumerate viable cells, and 800 µL of the suspension was lay ered onto 700 µL of chilled silicon oil contained in 1.5 mL Eppendo rf tubes and then centrifuged at 4 °C ( 900 x g) for 10 min, then again at 16,200 x g for 5 min to allow pass ag e of the cell suspension through the silicon oil layer. The aqueous and oil layers were removed, and the cell pellet was washed twice in PBS (800 μ L), each time transferring the cell suspension to a new Eppendorf tube and then centrifuging at 16,200 x g. The cell pellet was lysed in 800 µL methanol by vortexing followed by 10 min incubationat room temperatur e. The lysate suspension was pelleted, the supernatant was transferred to a new Eppendorf tube and then placed into a vacuum concentrator (Eppendorf 5301 Vacufuge) to evaporate the methanol (4 h). The dried […]
cell lysate was resuspend ed in 600 µL of DMSO and centrifuged at 16,200 x g rpm for 5 min at room temperature.
The clarified supernatant was titrated with small volumes of 250 µM compound stock, measuring the fluorescen ce after the addition of each aliquot with the aid of a Cary Eclipse Fluorescence Spectrometer (Agilent). The compound concentration was determined utilizing the standard addition method,17 and compound accumulation is reported as nmol compound/1012 CFU/mL. […]
Eclipse) fluorescen ce sp ectrophotometer. The flu orescen ce intensity of th e treated sample (FI)Tr and that of the untreated control (FI)Un was normalized to the corresponding OD600 and the ratio (FI/OD600)Tr / (F I/ OD600)Un is […]
The determination for each of the compounds was carri ed out in 5 biological replicates.
Determination of Siderophores Secreted by A. baumannii . The chromo azurol S (CAS) solution was prepared as previously reported18 with some modifications. The blue dye solution (0.6 g/L CAS ( ACROS Organics), 100 μM FeCl3·6H2O, and 0.73 g/L hexadecyltrimethylammonium bromide (HDTMA, ACROS Organics) was autoclaved and stored in the dark. The MM9-PIPES buffer solution (3 g/L KH2PO4, 5 g/L NaCl, 10 g/L NH4C l, 32.24 g/L piperazine -1,4-bis-2- ethanesulfonic acid (PIPES , Sigma Aldrich), pH 6.75) was sterilized using a 0.22 µm syringe filter (VWR). Prior to every experimen t, blue dye solution (0.5 mL) was mixed with 4.5 mL of MM9-PIPES solution. An overnight culture of A. baumannii 5075 was diluted to OD600 = 0.0001 with modified M63 media (no citric acid) supplemented with 4 μ M Fe and transferred to a 96-well plate, wh ere it was cul tured for 20

[4] = biofilm challenged with 30 µM compound
[5] = biofilm challenged with 50 µM compound
[6] = biofilm challenged with 20 µM compound

Row | Structure (SMILES) | % Survival Biofilm, P. aeruginosa PAO1 [2, 5] | Intracell. Accum, P. aeruginosa PAO1 [3] | further results
1 | Cc1cc(Cl)cc(CNc2cccc3c2C(=O)NC3=O)c1O [SB-16-156] | – | – | Intracell. Accum, P. aeruginosa PAO1 [1]: 165 ± 18 nmol/1012 CFU; % Survival Biofilm, P. aeruginosa PAO1 [2, 4]: 44 ± 18%
2 | O=C1NC(=O)c2c(NCc3cc(Br)cc(O)c3O)cccc21 [SB-16-136] | 63 ± 2% | – | –
3 | O=C1NC(=O)c2c(NCc3ccccc3O)cccc21 [Analog 11, 4-((2-Hydroxybenzyl)amino)isoindoline-1,3-dione] | 87 ± 6% | – | –
4 | O=C1NC(=O)c2c(NCc3cc(Br)ccc3O)ccc(Cl)c21 [SB-16-124] | – | – | Intracell. Accum, P. aeruginosa PAO1 [1]: 558 ± 154 nmol/1012 CFU; % Survival Biofilm, P. aeruginosa PAO1 [2, 6]: Not active
5 | Cc1cccc(CNc2cccc3c2C(=O)NC3=O)c1O [EB-5-70] | 105 ± 2% | – | –
6 | O=C1NC(=O)c2c(NCc3cc(Br)cc(O)c3O)ccc(Br)c21 [SB-16-250] | – | – | % Survival Biofilm, P. aeruginosa PAO1 [2, 6]: Not active
7 | O=C1NC(=O)c2c(NCc3cc(Br)cc(F)c3O)cccc21 [SB-16-118] | – | 126 ± 40 nmol/1012 CFU | % Survival Biofilm, P. aeruginosa PAO1 ([2]; biofilm challenged with 40 µM compound): 13 ± 2%
8 | O=C1NC(=O)c2c(NCc3cc(F)ccc3O)ccc(Br)c21 [SB-16-67] | – | 187 ± 59 nmol/1012 CFU | –
9 | O=C1NC(=O)c2c(NCc3cc(Cl)cc(O)c3O)cccc21 [SB-16-168] | Not active | – | –
10 | O=C1NC(=O)c2c(NCc3ccc(Br)cc3O)cccc21 [EB-5-61] | 8 ± 2% | 197 ± 17 nmol/1012 CFU | –
11 | O=C1NC(=O)c2c(NCc3c(O)cccc3Br)cccc21 [EB-5-72] | 45 ± 0.4% | – | –
12 | O=C1NC(=O)c2c(NCc3ccc4c(c3)COC4)cccc21 [SB-17-80] | – | – | % Survival Biofilm, P. aeruginosa PAO1 [2, 6]: Not active
13 | O=C1NC(=O)c2c(NCc3cccc(Br)c3O)cccc21 [EB-5-73] | – | 34 ± 9 nmol/1012 CFU | % Survival Biofilm, P. aeruginosa PAO1 [2, 4]: 78 ± 14%
14 | O=C1NC(=O)c2c(NCc3cc(Cl)c(O)cc3O)cccc21 [SB-16-160] | Not active | – | –
15 | O=C1NC(=O)c2c(NCc3cc(Br)c(F)cc3O)cccc21 [SB-16-112] | – | – | Intracell. Accum, P. aeruginosa PAO1 [1]: 457 ± 22 nmol/1012 CFU; % Survival Biofilm, P. aeruginosa PAO1 [2, 4]: 15 ± 0.7%
16 | CC(C)(C)c1ccc(O)c(CNc2cccc3c2C(=O)NC3=O)c1 [SB-16-53] | – | – | Intracell. Accum, P. aeruginosa PAO1 [1]: 263 ± 40 nmol/1012 CFU; % Survival Biofilm, P. aeruginosa PAO1 [2, 4]: 48 ± 10%
17 | O=C1NC(=O)c2c(NCc3cccc4c3CCN4)cccc21 [SB-17-140] | Not active | – | –
18 | O=C1NC(=O)c2c(NCc3cc(F)ccc3O)cccc21 [JAG-5-7] | 85 ± 16% | 28 ± 10 nmol/1012 CFU | –
19 | O=C1NC(=O)c2c(NCc3c(O)cccc3Cl)cccc21 [KM-5-29] | 50 ± 7% | 351 ± 25 nmol/1012 CFU | –
20 | Cc1cc(CNc2cccc3c2C(=O)NC3=O)c(O)cc1Br [SB-16-183] | – | – | Intracell. Accum, P. aeruginosa PAO1 [1]: 379 ± 48 nmol/1012 CFU; % Survival Biofilm, P. aeruginosa PAO1 [2, 6]: 43 ± 3%
21 | O=C1NC(=O)c2c(NCc3cccc(Cl)c3O)cccc21 [KM-5-30] | 72 ± 11% | 42 ± 1 nmol/1012 CFU | –
22 | O=C1NC(=O)c2c(NCc3cccc(F)c3O)cccc21 [EB-5-80] | 106 ± 23% | 11 ± 3 nmol/1012 CFU | –
23 | O=C1NC(=O)c2c(NCc3cc(Cl)ccc3O)cccc21 [KM-5-25, 4-((5-Chloro-2-hydroxybenzyl)amino)isoindoline-1,3-dione] | 17 ± 6% | 270 ± 48 nmol/1012 CFU | biofilm cell death [2]: concentration-dependent biofilm cell death
24 | O=C1NC(=O)c2c(NCc3cc(Br)c(O)cc3O)cccc21 [SB-16-137] | 78 ± 21% | 33 ± 1 nmol/1012 CFU | –
25 | Cc1ccc(CNc2cccc3c2C(=O)NC3=O)c(O)c1 [EB-5-69] | 64 ± 1% | 52 ± 2 nmol/1012 CFU | –
26 | O=C1NC(=O)c2c(NCc3cc(Cl)ccc3O)ccc(Br)c21 [SB-16-51] | – | – | Intracell. Accum, P. aeruginosa PAO1 [1]: 425 ± 79 nmol/1012 CFU; % Survival Biofilm, P. aeruginosa PAO1 [2, 6]: 53 ± 9%
27 | O=C1NC(=O)c2c(NCc3cc(Br)ccc3O)cccc21 [KM-5-35, 4-((5-Bromo-2-hydroxybenzyl)amino)isoindoline-1,3-dione] | 10 ± 4% | 360 ± 22 nmol/1012 CFU | biofilm cell death [2]: concentration-dependent biofilm cell death
28 | O=C1NC(=O)c2c(NCc3c(O)cccc3F)cccc21 [EB-5-71] | 52 ± 10% | – | –
29 | Cc1cc(Br)cc(CNc2cccc3c2C(=O)NC3=O)c1O [SB-16-106] | – | – | Intracell. Accum, P. aeruginosa PAO1 [1]: 415 ± 141 nmol/1012 CFU; % Survival Biofilm, P. aeruginosa PAO1 [2, 4]: 42 ± 9%
